Measurements as given in patent US20200017495A1, “NOVEL HETEROCYCLIC COMPOUNDS AND THEIR USE IN PREVENTING OR TREATING BACTERIAL INFECTIONS” (priority 2017, published 2020).
Like-named read-outs stand apart in the source and are kept apart here.

Columns and labels:
Assay in all cases: MIC of compounds alone and combined with antibacterials, broth microdilution (CLSI)
Type in all cases: cell-based
[1] = test system: Citrobacter freundii (CFR) isolates; details: Citrobacter freundii
Method in brief: (§1)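 First, log-phase suspensions are brought to 5.10^5 CFU/mL final in ca-MHB; plates then incubate 16-20 h at 35° C in air. Growth is judged visually, giving the compound MIC alone and the antibacterial MIC at each compound concentration.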

[2] = test system: Klebsiella oxytoca (KOX) isolates; details: Klebsiella oxytoca
Method in brief: as §1

[3] = test system: Klebsiella pneumoniae (KPN) isolates; details: Klebsiella pneumoniae
Method in brief: as §1

[4] = test system: Providencia rettgeri (PRE) isolates; details: Providencia rettgeri
Method in brief: as §1

[5] = test system: Serratia marcescens (SMA) isolates; details: Serratia marcescens
Method in brief: as §1

C=CC1=C(C(=O)O)N2C(=O)[C@@H](NC(=O)/C(=N\O)c3csc(N)n3)[C@H]2SC1 [CDR, Cefdinir]
MIC ([1]; strain CFR UFR10, genotype OXA-48): > 256 µg/mL
MIC ([1]; strain CFR UFR11, genotype TEM-1, OXA-1, OXA-48): > 256 µg/mL
MIC ([1]; strain CFR UFR83, genotype TEM-3, AmpC): > 256 µg/mL
MIC ([1]; strain CFR UFR146, genotype TEM-1, KPC-2, read-out: MIC): 256 µg/mL
MIC ([1]; strain CFR UFR248, genotype CTX-M-15): > 256 µg/mL
MIC ([1]; strain CFR UFR249, genotype TEM-1, CTX-M-15): > 256 µg/mL
MIC ([1]; strain CFR UFR250, genotype TEM-1, SHV-28, CTX-M-15): > 256 µg/mL
MIC ([1]; strain CFR UFR253, genotype TEM-1, SHV-12, OXA-48): > 256 µg/mL
MIC ([1]; strain CFR UFR254, genotype VEB-1b, OXA-48, qnrA, read-out: MIC): 256 µg/mL
MIC [2]: > 256 µg/mL
MIC ([3]; BAA1898, strain KPN BAA-1898, genotype TEM-1, SHV-11, SHV-12, KPC-2): > 256 µg/mL
MIC ([3]; strain KPN 6299, genotype TEM-1, SHV-11, OXA-163, read-out: MIC): 256 µg/mL
MIC ([3]; strain KPN 110376, genotype TEM-1, SHV-1, CTX-M-15, OXA-1, OXA-48): > 256 µg/mL
MIC ([3]; strain KPN 131119, genotype TEM-1, SHV-11, CTX-M-15, OXA-1, OXA-48): > 256 µg/mL
MIC ([3]; strain KPN 140513, genotype TEM-1, SHV-11, CTX-M-15, KPC-3): > 256 µg/mL
MIC ([3]; strain KPN 160143, genotype TEM-1, SHV-1, CTX-M-15, KPC-2, OXA-1): > 256 µg/mL
MIC ([3]; strain KPN 190128, genotype TEM-1, SHV-32, CTX-M-15, OXA-1): > 256 µg/mL
MIC ([3]; strain KPN 190270, genotype TEM-1, SHV-76, CTX-M-15, OXA-1): > 256 µg/mL
MIC ([3]; strain KPN 190425, genotype TEM-1, SHV-1, CTX-M-15, OXA-1): > 256 µg/mL
MIC ([3]; strain KPN 190551, genotype TEM-1, SHV-1, CTX-M-15, OXA-1): > 256 µg/mL
MIC ([3]; strain KPN 200047, genotype TEM-1, SHV-32, CTX-M-15, OXA-1): > 256 µg/mL
MIC ([3]; strain KPN 200327, genotype TEM-1, SHV-1, CTX-M-15, OXA-1): > 256 µg/mL
MIC ([3]; strain KPN 260251, genotype TEM-1, SHV-11, SHV-12, CTX-M-15, KPC-2): > 256 µg/mL
MIC ([3]; strain KPN 260252, genotype TEM-1, SHV-11, KPC-3): > 256 µg/mL
MIC ([3]; strain KPN 260376, genotype SHV-1, SHV-49, OXA-1): > 256 µg/mL
MIC ([3]; strain KPN 270077, genotype TEM-1, SHV-1, CTX-M-15): > 256 µg/mL
MIC ([3]; strain KPN 700603, genotype SHV-18, OXA-2, read-out: MIC): 4 µg/mL
MIC ([3]; strain KPN ARA, genotype TEM-1, SHV-11, CTX-M-15, OXA-1, OXA-48): > 256 µg/mL
MIC ([3]; strain KPN LIB, genotype SHV-11, OXA-48): > 256 µg/mL
MIC ([3]; strain KPN UFR22_O, genotype TEM-1, SHV-1, OXA-48): > 256 µg/mL
MIC ([3]; strain KPN UFR23, genotype TEM-1, SHV-1, OXA-48): > 256 µg/mL
MIC ([3]; strain KPN UFR24, genotype TEM-1, SHV-2, SHV-11, OXA-1, OXA-48, OXA-47): > 256 µg/mL
MIC ([3]; strain KPN UFR25, genotype TEM-1, SHV-11, CTX-M-15, OXA-162): > 256 µg/mL
MIC ([3]; strain KPN UFR27, genotype TEM-1, SHV-28, CTX-M-15, OXA-204): > 256 µg/mL
MIC ([3]; strain KPN UFR28, genotype TEM-1, SHV-1, CTX-M-15, OXA-1, OXA-232): > 256 µg/mL
MIC ([3]; strain KPN UFR65, genotype TEM-1, SHV-11, KPC-2): > 256 µg/mL
MIC ([3]; strain KPN UFR66, genotype TEM-1, SHV-11, CTX-M-15, KPC-2): > 256 µg/mL
MIC ([3]; strain KPN UFR67, genotype TEM-1, SHV-11, KPC-3): > 256 µg/mL
MIC ([3]; strain KPN UFR68, genotype TEM-1, SHV-11, CTX-M-15, KPC-3): > 256 µg/mL
MIC ([3]; strain KPN UFR76, genotype TEM-155, SHV-11, ACT-1, OXA-2): > 256 µg/mL
MIC ([3]; strain KPN UFR77, genotype CMY-2, read-out: MIC): 64 µg/mL
MIC ([3]; strain KPN UFR78, genotype TEM-1, SHV-1, CTX-M-15, CMY-2, OXA-1, OXA-48): > 256 µg/mL
MIC ([3]; strain KPN UFR79, genotype DHA-1, OXA-1, read-out: MIC): 256 µg/mL
MIC ([3]; strain KPN UFR80, genotype SHV-11, DHA-1, OXA-1, read-out: MIC): 1 µg/mL
MIC ([3]; strain KPN UFR81, genotype TEM-1, SHV-1, DHA-1, OXA-48): > 256 µg/mL
MIC ([3]; strain KPN UFR215, genotype SHV-27, CTX-M-15): > 256 µg/mL
MIC ([3]; strain KPN UFR216, genotype SHV-28, CTX-M-15): > 256 µg/mL
MIC ([3]; strain KPN UFR217, genotype TEM-1, SHV-1, CTX-M-15): > 256 µg/mL
MIC ([3]; strain KPN UFR219, genotype SHV-12, CTX-M-15): > 256 µg/mL
MIC ([3]; strain KPN UFR220, genotype TEM-1, SHV-12, DHA-1): > 256 µg/mL
MIC ([3]; strain KPN UFR221, genotype TEM-1, SHV-11, CTX-M-14, DHA-1, read-out: MIC): 128 µg/mL
MIC ([3]; strain KPN UFR222, genotype DHA-2): > 256 µg/mL
MIC ([3]; strain KPN UFR227O, genotype TEM-x, SHV-x, CTX-M-x): > 256 µg/mL
MIC ([4]; strain PRE UFR99, genotype OXA-1, OXA-181): > 256 µg/mL
MIC ([4]; strain PRE UFR236, genotype TEM-1, OXA-48): > 256 µg/mL
MIC [5]: > 256 µg/mL
MIC ([5]; strain SMA UFR134, genotype TEM-1, BES-1, read-out: MIC): 256 µg/mL
MIC ([5]; strain SMA UFR137, genotype SME-1, read-out: MIC): 4 µg/mL
MIC ([5]; strain SMA UFR138, genotype SME-1, read-out: MIC): 8 µg/mL
MIC ([5]; strain SMA UFR139, genotype SME-2, read-out: MIC): 64 µg/mL
MIC ([5]; strain SMA UFR239, genotype ESAC, read-out: MIC): 128 µg/mL
